{"source": "ChEMBL document CHEMBL5653627", "about": "(J Neurochem, 2017)", "key": {"GL261 [1]": {"system": "GL261", "test": "Anti-clonogenicic activity in mouse GL261 cells assessed as reduction in colony formation at 0.001 to 10 uM and measured after 10 days by MTT based clonogenic survival assay", "format": "functional, cell-based", "details": "dose 0.001-10 µM, time 10.0 day"}, "SMA-497 [2]": {"system": "SMA-497", "test": "Induction of apoptosis in mouse SMA-497 cells assessed as live cells at 0.1 uM incubated for 72 hrs by Annexin V-FITC/PI staining based flow cytometric analysis (reference value: 83.4%)", "format": "functional"}, "[3]": {"test": "Toxicity in C57Bl/6 mouse xenografted with mouse GL261 cells assessed as survival rate at 100 mg/kg,po daily (Rvb=13%)", "format": "organism-based", "details": "in vivo"}, "GL261 [4]": {"system": "GL261", "test": "Antitumor activity against mouse GL261 cells xenografted in C57Bl/6 mouse assessed as increase in number of tumor-infiltrating CD11b positive monocytes/microglia in tumor at 100 mg/kg,po daily by immunohistochemistry analysis", "format": "functional, organism-based"}, "SMA-540 [5]": {"system": "SMA-540", "test": "Antitumor activity against mouse SMA-540 cells xenografted in VM/Dk mouse assessed as decrease in number of CD31-positive intra-tumoral vessels in tumor at 100 mg/kg,po daily by immunohistochemistry analysis", "format": "functional, organism-based"}, "SMA-497 [6]": {"system": "SMA-497", "test": "In vivo inhibition of TIE-2 in VM/Dk mouse xenografted with mouse SMA-497 cells assessed as decrease in TIE-2 expression in brain blood vessels at 100 mg/kg,po daily with 12 Gy irradition after 2days of treatment initiation by immunohistochemistry analysis", "format": "functional, organism-based"}, "Angiopoietin-1 receptor": {"biological_target": "Angiopoietin-1 receptor (Homo sapiens, UniProt Q02763)", "sequence (Q02763 whole entry)": "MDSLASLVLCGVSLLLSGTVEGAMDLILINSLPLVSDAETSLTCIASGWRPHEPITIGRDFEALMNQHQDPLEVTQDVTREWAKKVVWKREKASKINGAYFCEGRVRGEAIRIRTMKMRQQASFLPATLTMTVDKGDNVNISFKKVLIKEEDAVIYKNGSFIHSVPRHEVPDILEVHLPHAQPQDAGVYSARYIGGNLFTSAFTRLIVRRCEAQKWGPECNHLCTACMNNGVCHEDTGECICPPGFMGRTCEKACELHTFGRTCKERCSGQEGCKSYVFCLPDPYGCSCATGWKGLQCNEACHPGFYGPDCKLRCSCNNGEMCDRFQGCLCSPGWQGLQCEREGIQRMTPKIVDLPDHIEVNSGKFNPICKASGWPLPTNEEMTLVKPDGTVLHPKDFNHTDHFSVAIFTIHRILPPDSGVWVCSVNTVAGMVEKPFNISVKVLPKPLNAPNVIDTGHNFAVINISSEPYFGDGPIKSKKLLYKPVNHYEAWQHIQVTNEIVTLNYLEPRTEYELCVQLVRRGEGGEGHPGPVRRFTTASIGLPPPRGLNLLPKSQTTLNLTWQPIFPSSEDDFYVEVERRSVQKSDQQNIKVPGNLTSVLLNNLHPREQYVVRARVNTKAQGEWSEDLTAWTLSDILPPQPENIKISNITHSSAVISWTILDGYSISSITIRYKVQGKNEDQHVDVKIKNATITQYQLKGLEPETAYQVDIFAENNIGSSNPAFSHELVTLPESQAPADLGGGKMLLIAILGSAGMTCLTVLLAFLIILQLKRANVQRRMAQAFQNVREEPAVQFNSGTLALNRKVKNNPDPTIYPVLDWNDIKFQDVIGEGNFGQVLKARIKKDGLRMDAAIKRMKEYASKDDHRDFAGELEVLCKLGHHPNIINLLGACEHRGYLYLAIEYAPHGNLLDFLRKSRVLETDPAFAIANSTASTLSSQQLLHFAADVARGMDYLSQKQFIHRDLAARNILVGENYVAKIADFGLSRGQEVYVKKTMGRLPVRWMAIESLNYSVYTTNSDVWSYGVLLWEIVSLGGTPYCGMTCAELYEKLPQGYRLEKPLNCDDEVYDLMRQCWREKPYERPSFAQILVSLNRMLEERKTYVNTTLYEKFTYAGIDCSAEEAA", "test": "Inhibition of TIE2 autophosphorylation in human HUVEC cells by Western blot analysis", "format": "cell-based"}, "SMA-560 [7]": {"system": "SMA-560", "test": "Antitumor activity against mouse SMA-560 cells xenografted in VM/Dk mouse assessed as decrease in tumor cell proliferation at 100 mg/kg,po daily with 12 Gy irradition after 2days of treatment initiation by Ki67 staining based immunohistochemistry analysis", "format": "functional, organism-based"}, "SMA-497 [8]": {"system": "SMA-497", "test": "Anti-clonogenicic activity in mouse SMA-497 cells assessed as reduction in colony formation at 0.001 to 10 uM and measured after 10 days by MTT based clonogenic survival assay", "format": "functional, cell-based", "details": "dose 0.001-10 µM, time 10.0 day"}, "[9]": {"test": "Toxicity in VM/Dk mouse xenografted with mouse SMA-497 cells assessed as survival rate at 100 mg/kg,po daily with 12 Gy irradition after 2days of treatment initiation (Rvb=17%)", "format": "organism-based", "details": "in vivo, 48 h"}, "GL261 [10]": {"system": "GL261", "test": "Antitumor activity against mouse GL261 cells xenografted in C57Bl/6 mouse assessed as decrease in number of CD31-positive intra-tumoral vessels in tumor at 100 mg/kg,po daily by immunohistochemistry analysis", "format": "functional, organism-based"}, "[11]": {"test": "Toxicity in VM/Dk mouse xenografted with mouse SMA-560 cells assessed as survival rate at 100 mg/kg,po daily (Rvb=13 to 20%)", "format": "organism-based", "details": "in vivo"}, "GL261 [12]": {"system": "GL261", "test": "Antitumor activity against mouse GL261 cells xenografted in C57Bl/6 mouse assessed as tumor cell proliferation at 100 mg/kg,po daily by Ki67 staining based immunohistochemistry analysis", "format": "functional, organism-based"}, "SMA-497 [13]": {"system": "SMA-497", "test": "Induction of apoptosis in mouse SMA-497 cells assessed as early apoptotic cells at 0.1 uM incubated for 72 hrs by Annexin V-FITC/PI staining based flow cytometric analysis (reference value: 0.015%)", "format": "functional"}, "GL261 [14]": {"system": "GL261", "test": "Antitumor activity against mouse GL261 cells xenografted in C57Bl/6 mouse assessed as decrease in tumor volume at 100 mg/kg,po daily by H and E staining based microscopy", "format": "functional, organism-based"}, "SMA-560 [15]": {"system": "SMA-560", "test": "Antitumor activity against mouse SMA-560 cells xenografted in VM/Dk mouse assessed as decrease in number of CD31-positive intra-tumoral vessels in tumor at 100 mg/kg,po daily by immunohistochemistry analysis", "format": "functional, organism-based"}, "SMA-540 [16]": {"system": "SMA-540", "test": "Antitumor activity against mouse SMA-540 cells xenografted in VM/Dk mouse assessed as tumor cell proliferation at 100 mg/kg,po daily by Ki67 staining based immunohistochemistry analysis", "format": "functional, organism-based"}, "SMA-497 [17]": {"system": "SMA-497", "test": "Antitumor activity against mouse SMA-497 cells xenografted in VM/Dk mouse assessed as increase in number of tumor-infiltrating CD11b positive monocytes/microglia in tumor at 100 mg/kg,po daily by immunohistochemistry analysis", "format": "functional, organism-based"}, "SMA-497 [18]": {"system": "SMA-497", "test": "Antitumor activity against mouse SMA-497 cells xenografted in VM/Dk mouse assessed as tumor cell proliferation at 100 mg/kg,po daily by Ki67 staining based immunohistochemistry analysis", "format": "functional, organism-based"}, "SMA-560 [19]": {"system": "SMA-560", "test": "Induction of cell cycle arrest in mouse SMA-560 cells assessed as accumulation at G0/G1 phase at 0.1 uM incubated for 72 hrs by propidium iodide/RNase staining based flow cytomtery (Rvb= 71%)", "format": "functional"}, "SMA-560 [20]": {"system": "SMA-560", "test": "Antitumor activity against mouse SMA-560 cells xenografted in VM/Dk mouse assessed as decrease in tumor volume at 100 mg/kg,po daily with 12 Gy irradition after 2days of treatment initiation by H and E staining based microscopy", "format": "functional, organism-based"}, "SMA-560 [21]": {"system": "SMA-560", "test": "Induction of apoptosis in mouse SMA-560 cells assessed as late apoptotic cells at 0.1 uM incubated for 72 hrs by Annexin V-FITC/PI staining based flow cytometric analysis (reference value: 1.83%)", "format": "functional"}, "SMA-497 [22]": {"system": "SMA-497", "test": "Induction of cell cycle arrest in mouse SMA-497 cells assessed as accumulation at sub G1 phase at 0.1 uM incubated for 72 hrs by propidium iodide/RNase staining based flow cytomtery (Rvb= 2%)", "format": "functional"}, "SMA-540 [23]": {"system": "SMA-540", "test": "In vivo inhibition of TIE-2 in VM/Dk mouse xenografted with mouse SMA-540 cells assessed as decrease in TIE-2 expression in brain blood vessels at 100 mg/kg,po daily by immunohistochemistry analysis", "format": "functional, organism-based"}, "SMA-497 [24]": {"system": "SMA-497", "test": "Antitumor activity against mouse SMA-497 cells xenografted in VM/Dk mouse assessed as decrease in number of CD31-positive intra-tumoral vessels in tumor at 100 mg/kg,po daily by immunohistochemistry analysis", "format": "functional, organism-based"}, "SMA-497 [25]": {"system": "SMA-497", "test": "Anti-clonogenicic activity in mouse SMA-497 cells assessed as reduction in colony formation at 0.1 to 1 uM preincubated for 6 hrs followed by temozolomide addition and measured after 10 days by MTT based clonogenic survival assay", "format": "functional, cell-based", "details": "dose 0.1-1 µM, time 246.0 hrs"}, "SMA-560 [26]": {"system": "SMA-560", "test": "Induction of apoptosis in mouse SMA-560 cells assessed as live cells at 0.1 uM incubated for 72 hrs by Annexin V-FITC/PI staining based flow cytometric analysis (reference value: 84.6%)", "format": "functional"}, "[27]": {"test": "Toxicity in VM/Dk mouse xenografted with mouse SMA-560 cells assessed as survival rate at 100 mg/kg,po daily with 12 Gy irradition after 2days of treatment initiation (Rvb=30%)", "format": "organism-based", "details": "in vivo, 48 h"}, "[28]": {"biological_target": "Epithelial discoidin domain-containing receptor 1 (Homo sapiens, UniProt Q08345)", "sequence (Q08345 whole entry, the tested form may be a part)": "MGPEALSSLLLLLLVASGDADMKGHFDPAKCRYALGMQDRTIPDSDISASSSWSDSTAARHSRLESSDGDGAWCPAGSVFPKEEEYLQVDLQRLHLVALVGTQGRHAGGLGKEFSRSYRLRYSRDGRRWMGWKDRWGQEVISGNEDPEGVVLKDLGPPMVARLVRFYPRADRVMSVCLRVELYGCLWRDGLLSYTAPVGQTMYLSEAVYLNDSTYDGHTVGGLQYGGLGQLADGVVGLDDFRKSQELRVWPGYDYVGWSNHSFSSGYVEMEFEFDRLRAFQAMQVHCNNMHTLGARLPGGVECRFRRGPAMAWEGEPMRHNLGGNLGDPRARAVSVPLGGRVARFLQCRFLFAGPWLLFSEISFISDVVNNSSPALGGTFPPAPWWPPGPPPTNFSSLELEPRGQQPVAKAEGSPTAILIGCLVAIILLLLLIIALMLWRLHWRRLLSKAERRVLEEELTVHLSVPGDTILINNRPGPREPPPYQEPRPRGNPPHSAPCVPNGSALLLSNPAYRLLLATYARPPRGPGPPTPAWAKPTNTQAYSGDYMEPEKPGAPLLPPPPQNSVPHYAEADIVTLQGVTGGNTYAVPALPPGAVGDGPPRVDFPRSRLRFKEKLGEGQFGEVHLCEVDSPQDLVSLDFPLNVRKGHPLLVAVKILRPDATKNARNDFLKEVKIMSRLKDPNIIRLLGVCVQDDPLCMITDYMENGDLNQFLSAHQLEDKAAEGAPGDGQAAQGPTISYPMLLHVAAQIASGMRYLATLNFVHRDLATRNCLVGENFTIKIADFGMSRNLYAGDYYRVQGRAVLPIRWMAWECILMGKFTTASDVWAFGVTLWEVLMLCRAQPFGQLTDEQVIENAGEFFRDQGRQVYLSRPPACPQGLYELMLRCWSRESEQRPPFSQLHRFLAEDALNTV", "test": "Binding affinity to DDR1 (unknown origin) assessed as dissociation constant by KINOME scan assay"}, "SMA-560 [29]": {"system": "SMA-560", "test": "Antitumor activity against mouse SMA-560 cells xenografted in VM/Dk mouse assessed as increase in number of tumor-infiltrating CD11b positive monocytes/microglia in tumor at 100 mg/kg,po daily by immunohistochemistry analysis", "format": "functional, organism-based"}, "SMA-497 [30]": {"system": "SMA-497", "test": "In vivo inhibition of TIE-2 in VM/Dk mouse xenografted with mouse SMA-497 cells assessed as decrease in TIE-2 expression in brain blood vessels at 100 mg/kg,po daily by immunohistochemistry analysis", "format": "functional, organism-based"}}, "note": "pEC50, pKd: −log10 of the molar value. Calls of active or inactive are those of the source. The calls are words filed in the database; no cut-off is given here.", "data": [{"smiles": "Cc1cc(C)c(-n2ccn3nc(-c4cccnc4)cc23)cc1NC(=O)c1cc(C#N)cc(S(F)(F)(F)(F)F)c1", "note": "[BAY-826]", "values": [{"measurement": "Activity", "setting": "GL261 [1]", "result": "inactive"}, {"measurement": "Activity", "setting": "SMA-497 [2]", "result": 91.4, "unit": "%"}, {"measurement": "Survival", "setting": "[3]", "result": 15, "unit": "%"}, {"measurement": "Activity", "setting": "GL261 [4]", "result": "inactive"}, {"measurement": "Activity", "setting": "SMA-540 [5]", "result": "inactive"}, {"measurement": "inhibition", "setting": "SMA-497 [6]", "result": "Active"}, {"measurement": "pEC50", "setting": "Angiopoietin-1 receptor", "result": 8.89}, {"measurement": "Activity", "setting": "SMA-560 [7]", "result": "inactive"}, {"measurement": "Activity", "setting": "SMA-497 [8]", "result": "inactive"}, {"measurement": "Survival", "setting": "[9]", "result": 17, "unit": "%"}, {"measurement": "Activity", "setting": "GL261 [10]", "result": "Active"}, {"measurement": "Survival", "setting": "[11]", "result": 15, "unit": "%"}, {"measurement": "Activity", "setting": "GL261 [12]", "result": "inactive"}, {"measurement": "Activity", "setting": "SMA-497 [13]", "result": 0, "unit": "%"}, {"measurement": "Activity", "setting": "GL261 [14]", "result": "inactive"}, {"measurement": "Activity", "setting": "SMA-560 [15]", "result": "Active"}, {"measurement": "Activity", "setting": "SMA-540 [16]", "result": "inactive"}, {"measurement": "Activity", "setting": "SMA-497 [17]", "result": "Active"}, {"measurement": "Activity", "setting": "SMA-497 [18]", "result": "inactive"}, {"measurement": "Activity", "setting": "SMA-560 [19]", "result": 67, "unit": "%"}, {"measurement": "Activity", "setting": "SMA-560 [20]", "result": "Active"}, {"measurement": "Activity", "setting": "SMA-560 [21]", "result": 0.66, "unit": "%"}, {"measurement": "Activity", "setting": "SMA-497 [22]", "result": 4, "unit": "%"}, {"measurement": "inhibition", "setting": "SMA-540 [23]", "result": "Active"}, {"measurement": "Activity", "setting": "SMA-497 [24]", "result": "inactive"}, {"measurement": "Activity", "setting": "SMA-497 [25]", "result": "inactive"}, {"measurement": "Activity", "setting": "SMA-560 [26]", "result": 90.5, "unit": "%"}, {"measurement": "Survival", "setting": "[27]", "result": 33.5, "unit": "%"}, {"measurement": "pKd", "setting": "[28]", "result": 9.40}, {"measurement": "Activity", "setting": "SMA-560 [29]", "result": "inactive"}, {"measurement": "inhibition", "setting": "SMA-497 [30]", "result": "Active"}]}]}
